Data as given in EP0923292B1, “IMPROVED METHOD FOR SYSTEMIC ADMINISTRATION OF 2,4-DIENOIC ACID-TYPE INSECTICIDES TO TERRESTRIAL MAMMALS” (priority 1996, dated 1998).

Assays:
[1] = Concentration of (S)-methoprene on dog hair following oral administration (HPLC); format: in vivo, dogs; details: oral 50 mg/kg one time on Day 0; for concentration at 17 day / concentration at 21 day / concentration at 1 day / concentration at 3 day / concentration at 5 day / concentration at 7 day / concentration at 10 day / concentration at 14 day / concentration at 28 day: dog, hair, po, 50 mg/kg; for concentration at 1 day: day 1
From the text: Twelve random-bred adult dogs of various sex and medium hair coat were selected based on hair coat, health, and individual habits. The twelve dogs were grouped into two groups of six dogs each. Dog weights ranged from 22.5 kg to 35.0 kg, and the various weights and each sex were represented in each group. The dogs received a measured amount of Science Diet maintenance dog food daily and water was available. The two groups of dogs were housed separately. The dogs of Group 1 were not given any treatments, whereas those of Group 2 were each given 50 mg/kg of technical (S)-methoprene one time only at the start of the study (Day 0).
Blood samples were taken periodically by drawing the samples into 10 cc disposable syringes and transferring them to labeled 5 mL heparinized EDTA vacutainers treated with […] of paraoxon solution at a concentration of 1 x 10^-2 M. The blood samples were frozen until ready for analysis. Hair samples were clipped from the dogs on the same days that blood samples were taken, then placed in labeled freezer jars with aluminum foil seals, and frozen.
To analyze the dog hair, a known weight (4-8 g) of each dog hair sample was extracted in hexane, the extract evaporated and the residue reconstituted in 2 mL of hexane. One mL of the extract was cleaned by solid-phase extraction using a 3 cc/500 mg silica cartridge. The (S)-methoprene was then eluted from the cartridge with 5% ethyl acetate/hexane. The residue was reconstituted in 1 mL acetonitrile and analyzed by reversed-phase high-pressure liquid chromatography (HPLC) on a C18 column (250 x 4.6 mm, 10-micron diameter) using diode array detection at a wavelength of 264 nm, with a mobile phase of 90:10 methanol:water at 1.5 mUmin and an injection volume of […]. The (S)-methoprene peak eluted at about 5.1 minutes. The concentration of (S)-methoprene was calculated based on a calibration curve generated by concurrently running a series of standards. The limit of quantitation was about 20 ppb.

[2] = tested on: C. felis; assay: Systemic flea ovicidal activity upon oral administration to host dogs (Example 2); format: in vivo, C. felis (host: dogs); details: for Percent Inhibition of Flea Egg Hatching: relative to placebo
From the text: Nine random-bred, clinically healthy dogs, five male and four female, ranging in weight from 7.5 to 14.9 kg and in age from 7 months to 68 months, and having hair coats ranging from fine to coarse and from 1.0 to 2.5 cm in length, were used. The dogs were assigned to three treatment groups based on weight, one group designated to receive a placebo (gelatin capsules containing no (S)-methoprene), the second group to receive gelatin capsules individually prepared to contain the appropriate quantity of (S)-methoprene such that one capsule would provide 25.0 mg (S)-methoprene per kg of the body weight of a particular dog, and the third group to receive gelatin capsules individually prepared to provide 50.0 mg/kg of body weight per dog. […]
Eleven days before the administration of the first gelatin capsule (i.e., on Day -11), and weekly thereafter through Day 59, each dog was infested with approximately 200 one-to two-week-old, unfed adult C. fells fleas of mixed sex ratio. Each dog was restrained for about one minute while the fleas were released along the dorsum.
[…] Prior to egg collection, the cages in which the dogs were housed and the collection trays were rinsed with isopropyl alcohol, and the water was turned off, feed bowls and resting pads were removed from each cage. Trays covered with a screen made of […] hardware cloth were placed under the cages, and heavy white butcher paper was placed under the hardware cloth. After an interval of 14-16 hours, the paper was swept and the debris and flea eggs thus collected were transferred to a metal pan. The debris was separated from the eggs by sieving, and the eggs were placed in half-pint plastic cartons, then transferred to 10 cm x 10 cm glass plates. Using a dissecting microscope and a fine tipped artist brush, 100 flea eggs were counted from the sweepings of each dog and separated into four replicates of 25 eggs each. The eggs were placed in a 15 mm x 60 mm disposable plastic petri dish and incubated at 79-80°F and 80% relative humidity. Seventy two hours after collection, larvae emergence was determined. Both dead and live larvae were counted to determine the ovicidal effect of the treatment.
The results are listed in Table II below, where each entry represents the percent inhibition of hatching of fleas from the flea eggs relative to the placebo group, and each entry is the average of all replicates and of all three dogs in the particular treatment group.

Structure (SMILES): COC(C)(C)CCC[C@H](C)C/C=C/C(C)=C/C(=O)OC(C)C [(S)-Methoprene, 1-isopropyl (E,E)-11-methoxy-3,7,11-trimethyl dodecadi-2,4-enoate]
- Concentration of (S)-Methoprene on Dog Hair ([1]; Dog #60, day 3): 33,900 ppb
- Concentration of (S)-Methoprene on Dog Hair ([1]; Dog #60, day 5): 12,500 ppb
- Concentration of (S)-Methoprene on Dog Hair ([1]; Dog #60, day 7): 2,400 ppb
- Concentration of (S)-Methoprene on Dog Hair ([1]; Dog #60, day 10): 12,300 ppb
- Concentration of (S)-Methoprene on Dog Hair ([1]; Dog #60, day 14): 5,300 ppb
- Concentration of (S)-Methoprene on Dog Hair ([1]; Dog #60, day 17): 3,600 ppb
- Concentration of (S)-Methoprene on Dog Hair ([1]; Dog #60, day 21): 12,100 ppb
- Concentration of (S)-Methoprene on Dog Hair ([1]; Dog #60, day 28): 5,200 ppb
- concentration at 17 day ([1]; Dog #98, day 17): 345 ng/g
- concentration at 17 day ([1]; Dog #528, day 17): 137 ng/g
- concentration at 21 day ([1]; Dog #528, day 21): 31.2 ng/g
- concentration at 17 day ([1]; Dog #529, day 17): 39.7 ng/g
- concentration at 21 day ([1]; Dog #529, day 21): 93.5 ng/g
- concentration at 17 day ([1]; Dog #532, day 17): 331 ng/g
- concentration at 17 day ([1]; Dog #535, day 17): 1090 ng/g
- concentration at 1 day ([1]; random-bred, Dog #60): 6000 ng/g
- concentration at 1 day ([1]; random-bred, Dog #98): 47.4 ng/g
- concentration at 3 day ([1]; random-bred, Dog #98, day 3): 125 ng/g
- concentration at 5 day ([1]; random-bred, Dog #98, day 5): 161 ng/g
- concentration at 7 day ([1]; random-bred, Dog #98, day 7): 126 ng/g
- concentration at 10 day ([1]; random-bred, Dog #98, day 10): 167 ng/g
- concentration at 14 day ([1]; random-bred, Dog #98, day 14): 200 ng/g
- concentration at 21 day ([1]; random-bred, Dog #98, day 21): 231 ng/g
- concentration at 28 day ([1]; random-bred, Dog #98, day 28): 287 ng/g
- concentration at 1 day ([1]; random-bred, Dog #528): 76.6 ng/g
- concentration at 3 day ([1]; random-bred, Dog #528, day 3): 199 ng/g
- concentration at 5 day ([1]; random-bred, Dog #528, day 5): 114 ng/g
- concentration at 7 day ([1]; random-bred, Dog #528, day 7): 150 ng/g
- concentration at 10 day ([1]; random-bred, Dog #528, day 10): 126 ng/g
- concentration at 14 day ([1]; random-bred, Dog #528, day 14): 103 ng/g
- concentration at 28 day ([1]; random-bred, Dog #528, day 28): 47.2 ng/g
- concentration at 1 day ([1]; random-bred, Dog #529): 86.6 ng/g
- concentration at 3 day ([1]; random-bred, Dog #529, day 3): 82.2 ng/g
- concentration at 5 day ([1]; random-bred, Dog #529, day 5): 58.3 ng/g
- concentration at 7 day ([1]; random-bred, Dog #529, day 7): 34.5 ng/g
- concentration at 10 day ([1]; random-bred, Dog #529, day 10): 60.5 ng/g
- concentration at 14 day ([1]; random-bred, Dog #529, day 14): 85.5 ng/g
- concentration at 28 day ([1]; random-bred, Dog #529, day 28): 106 ng/g
- concentration at 3 day ([1]; random-bred, Dog #532, day 3): 62.4 ng/g
- concentration at 5 day ([1]; random-bred, Dog #532, day 5): 98.6 ng/g
- concentration at 7 day ([1]; random-bred, Dog #532, day 7): 117 ng/g
- concentration at 10 day ([1]; random-bred, Dog #532, day 10): 255 ng/g
- concentration at 14 day ([1]; random-bred, Dog #532, day 14): 350 ng/g
- concentration at 21 day ([1]; random-bred, Dog #532, day 21): 342 ng/g
- concentration at 28 day ([1]; random-bred, Dog #532, day 28): 230 ng/g
- concentration at 1 day ([1]; random-bred, Dog #535): 49.3 ng/g
- concentration at 3 day ([1]; random-bred, Dog #535, day 3): 424 ng/g
- concentration at 5 day ([1]; random-bred, Dog #535, day 5): 276 ng/g
- concentration at 7 day ([1]; random-bred, Dog #535, day 7): 294 ng/g
- concentration at 10 day ([1]; random-bred, Dog #535, day 10): 681 ng/g
- concentration at 14 day ([1]; random-bred, Dog #535, day 14): 800 ng/g
- concentration at 21 day ([1]; random-bred, Dog #535, day 21): 675 ng/g
- concentration at 28 day ([1]; random-bred, Dog #535, day 28): 461 ng/g
- duration of ovicidal efficacy ([2]; administered systemically to host dogs at 50 mg/kg and 25 mg/kg): two weeks or more
- time effective in controlling fleas ([2]; following a single oral dose of 50 mg/kg to dogs): 14 days
- Percent Inhibition of Flea Egg Hatching ([2]; oral 25 mg/kg once on Day 0 and once on Day 33, 1 day after initial administration): 92.3%
- Percent Inhibition of Flea Egg Hatching ([2]; oral 25 mg/kg once on Day 0 and once on Day 33, 2 days after initial administration): 80.4%
- Percent Inhibition of Flea Egg Hatching ([2]; oral 25 mg/kg once on Day 0 and once on Day 33, 4 days after initial administration): 100.0%
- Percent Inhibition of Flea Egg Hatching ([2]; oral 25 mg/kg once on Day 0 and once on Day 33, 7 days after initial administration): 44.4%
- Percent Inhibition of Flea Egg Hatching ([2]; oral 25 mg/kg once on Day 0 and once on Day 33, 14 days after initial administration): 75.1%
- Percent Inhibition of Flea Egg Hatching ([2]; oral 25 mg/kg once on Day 0 and once on Day 33, 21 days after initial administration): 79.0%
- Percent Inhibition of Flea Egg Hatching ([2]; oral 25 mg/kg once on Day 0 and once on Day 33, 28 days after initial administration): 39.9%
- Percent Inhibition of Flea Egg Hatching ([2]; oral 25 mg/kg once on Day 0 and once on Day 33, 35 days after initial administration): 100.0%
- Percent Inhibition of Flea Egg Hatching ([2]; oral 25 mg/kg once on Day 0 and once on Day 33, 42 days after initial administration): 95.9%
- Percent Inhibition of Flea Egg Hatching ([2]; oral 25 mg/kg once on Day 0 and once on Day 33, 49 days after initial administration): 11.3%
- Percent Inhibition of Flea Egg Hatching ([2]; oral 25 mg/kg once on Day 0 and once on Day 33, 55 days after initial administration): 12.6%
- Percent Inhibition of Flea Egg Hatching ([2]; oral 25 mg/kg once on Day 0 and once on Day 33, 63 days after initial administration): 14.0%
- Percent Inhibition of Flea Egg Hatching ([2]; oral 50 mg/kg once on Day 0 and once on Day 33, 1 day after initial administration): 98.9%
- Percent Inhibition of Flea Egg Hatching ([2]; oral 50 mg/kg once on Day 0 and once on Day 33, 2 days after initial administration): 100.0%
- Percent Inhibition of Flea Egg Hatching ([2]; oral 50 mg/kg once on Day 0 and once on Day 33, 4 days after initial administration): 100.0%
- Percent Inhibition of Flea Egg Hatching ([2]; oral 50 mg/kg once on Day 0 and once on Day 33, 7 days after initial administration): 97.5%
- Percent Inhibition of Flea Egg Hatching ([2]; oral 50 mg/kg once on Day 0 and once on Day 33, 14 days after initial administration): 97.9%
- Percent Inhibition of Flea Egg Hatching ([2]; oral 50 mg/kg once on Day 0 and once on Day 33, 21 days after initial administration): 73.0%
- Percent Inhibition of Flea Egg Hatching ([2]; oral 50 mg/kg once on Day 0 and once on Day 33, 28 days after initial administration): 50.8%
- Percent Inhibition of Flea Egg Hatching ([2]; oral 50 mg/kg once on Day 0 and once on Day 33, 35 days after initial administration): 100.0%
- Percent Inhibition of Flea Egg Hatching ([2]; oral 50 mg/kg once on Day 0 and once on Day 33, 42 days after initial administration): 100.0%
- Percent Inhibition of Flea Egg Hatching ([2]; oral 50 mg/kg once on Day 0 and once on Day 33, 49 days after initial administration): 51.5%
- Percent Inhibition of Flea Egg Hatching ([2]; oral 50 mg/kg once on Day 0 and once on Day 33, 55 days after initial administration): 31.9%
- Percent Inhibition of Flea Egg Hatching ([2]; oral 50 mg/kg once on Day 0 and once on Day 33, 63 days after initial administration): 16.1%
